From article PMC3845904 (Chemical research in toxicology, 2009)
Read-outs that look alike come from different tables or passages of the source.

Assays:
human P450 1B1 [1] = molecular target: T1, human P450 1B1 (Homo sapiens, UniProt Q16678); conditions: pH 7.4
T1 sequence (Q16678 1-543): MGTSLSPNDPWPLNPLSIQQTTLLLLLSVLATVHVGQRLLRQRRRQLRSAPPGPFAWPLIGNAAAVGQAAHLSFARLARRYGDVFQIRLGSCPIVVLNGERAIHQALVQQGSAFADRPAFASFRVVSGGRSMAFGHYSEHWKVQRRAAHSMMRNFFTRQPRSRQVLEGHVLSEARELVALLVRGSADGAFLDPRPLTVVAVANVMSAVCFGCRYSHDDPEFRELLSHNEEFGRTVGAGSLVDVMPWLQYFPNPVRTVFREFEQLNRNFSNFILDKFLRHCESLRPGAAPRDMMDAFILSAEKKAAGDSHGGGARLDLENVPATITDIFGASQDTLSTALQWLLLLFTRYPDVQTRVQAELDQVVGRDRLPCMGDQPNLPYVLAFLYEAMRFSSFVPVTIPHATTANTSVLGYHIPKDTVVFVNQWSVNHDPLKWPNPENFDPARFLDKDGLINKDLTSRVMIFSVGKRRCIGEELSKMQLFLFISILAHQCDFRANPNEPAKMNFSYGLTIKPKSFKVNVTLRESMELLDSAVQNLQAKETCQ

human P450 1B1 [2] = molecular target: T1, human P450 1B1
human P450 1B1 [3] = molecular target: T1, human P450 1B1; assay: Inhibition of 7-ethoxyresorufin O-deethylation; conditions: results not presented
human P450 1B1 [4] = molecular target: T1, human P450 1B1; assay: biochemical
human P450 1B1 [5] = molecular target: T1, human P450 1B1; assay: Spectral binding titration; conditions: purified P450 1B1 1.0 μM, ND = not detected at 100 μM

Row | SMILES | Kd (human P450 1B1 [1]) [nM] | IC50 (human P450 1B1 [2]) [nM] | manner of inhibition of P450 1B1 EROD activity (human P450 1B1 [3]) | IC50 (human P450 1B1 [4]) [nM] | Reverse Type I spectra ΔAmax/Ks (magnitude of spectral binding) (human P450 1B1 [5]) | Reverse Type I spectra ΔAmax (human P450 1B1 [5]; means ± SEs)
1 | CCC#Cc1ccc(-c2ccccc2)cc1 [4BuB, 4-butinylbiphenyl] | 54000 ± 6200 | 1500 ± 300 |  |  |  | 
2 | CC#Cc1ccc(-c2ccccc2)cc1 [4PB, 4-(1-propynyl)biphenyl] |  |  | mechanism-based manner | 1800 ± 200 | 0.0062 | 0.074 ± 0.008
